Experimental data as given in patent US20260262647A1, “Synergistic Compositions Containing Guanidine” (Thor GmbH, priority 2023, published 2026).

Columns and labels:
Format in all cases: cell-based
[1] = test system: Pseudomonas spec. DSM 115322; assay: Minimum inhibitory concentrations and synergy index in Müller-Hinton broth
Method: (§1) Test organisms used were Gram-negative bacterial species from the group of pseudomonads, Pseudomonas putida DSM 115323 and Pseudomonas spec. DSM 115322. For this purpose, mixtures with different concentrations of the respective active substances were prepared and tested for their effect on the pseudomonads. The test was run in Müller-Hinton broth MHB with a cell density of 10^6 microbes per ml. When organic acids are used as a combination partner with the guanidine, MHB was adjusted to pH 5.5.
(§2) The incubation was run in microplates at 30° C. for 48 hours. After 48 hours, the batches were evaluated for turbidity resulting from growth, and optical density was additionally determined photometrically. In this way, the minimum inhibitory concentrations (MICs) of the two actives were determined individually and in combination.
(§3) The calculation was done according to the standard method of F. C. Kull et al., Applied Microbiology, vol. 9 (1961), p. 538.
(§4) This involves calculating the synergy index (SI) by the following formula:
(§5) [formula] • Qa=concentration of component A in the A+B mixture • QA=concentration of component A as the sole biocide • Qb=concentration of component B in the A+B mixture • QB=concentration of component B as the sole biocide
(§6) If the synergy index is greater than 1, this means that there is antagonism. If the synergy index assumes the value 1, this means that the effect of the two biocides/compounds is additive. If the synergy index assumes a value of less than 1, this means that there is synergism between the two biocides/compounds.

[2] = test system: yeast mixture; assay: All-purpose detergent inoculated once with yeast mixture, semiquantitative growth evaluation; design: key: 0: No growth; Minimal growth, 1 to 10 colonies visible over the entire streak; 2: Light growth, maximum 100 colonies; Moderate growth, maximum 300 to 400 colonies; Uniform growth, >400 colonies, single colonies still clearly recognizable; 5: Heavy growth, too many colonies to count, but no growth over the entire streak; 6: Full growth, barely any single colonies still apparent, growth over the entire streak; details: Example 38, all-purpose detergent, +100 ppm BIT
Text: (§7) In examples 35 to 38 below, synergistic interaction between guanidine and antimicrobial substances with respect to microbial infestation was studied using an emulsion paint and a laundry detergent or cleaning composition by adding particular amounts of guanidine salts and isothiazolinones and examining their stability against microbial infestation: […] The laundry detergent was a heavy-duty laundry detergent without preservatives (pH 8.1), and the cleaning composition was an all-purpose detergent without preservatives (pH 7.6), each likewise made in the laboratory, without addition of the otherwise usual conventional preservatives. To each paint was added—individually and in combination—particular concentrations of guanidinium hydrochloride, benzisothiazolinone (BIT), and a mixture of chloromethylisothiazolinone (CIT) and methylisothiazolinone (MIT). The laundry detergent and the cleaning composition were admixed with particular concentrations of guanidinium hydrochloride and benzisothiazolinone (BIT). The resultant batches of the paint thus prepared were inoculated with a mixture of different bacteria species (bacteria mixture B); the batches of the laundry detergent and cleaning compositions thus prepared were inoculated with a yeast mixture. • Pichia manshurica DSM 12249 • Rhodotorula mucilaginosa DSM 12248 • Candida boidinii DSM 13622 • Candida albicans DSM 1386 […] Further steps for establishment of a cell count of the inoculum suspension of 10^8/ml were effected analogously to the production of the bacteria suspension. […] The streaked agar plates were then incubated at 30° C. for 48 hours (bacteria) or at 25° C. for 72 hours (yeasts). After incubation, the bacterial or yeast colonies that have grown on the agar plates were visually evaluated and quantified according to the following scheme: [table]

[3] = test system: bacteria mixture B; assay: Emulsion paint inoculated once with bacteria mixture B, semiquantitative growth evaluation; design: key: 0: No growth; Minimal growth, 1 to 10 colonies visible over the entire streak; 2: Light growth, maximum 100 colonies; Moderate growth, maximum 300 to 400 colonies; Uniform growth, >400 colonies, single colonies still clearly recognizable; 5: Heavy growth, too many colonies to count, but no growth over the entire streak; 6: Full growth, barely any single colonies still apparent, growth over the entire streak; details: Example 35, emulsion paint, +500 ppm BIT
Text: In examples 35 to 38 below, synergistic interaction between guanidine and antimicrobial substances with respect to microbial infestation was studied using an emulsion paint and a laundry detergent or cleaning composition by adding particular amounts of guanidine salts and isothiazolinones and examining their stability against microbial infestation: […] The laundry detergent was a heavy-duty laundry detergent without preservatives (pH 8.1), and the cleaning composition was an all-purpose detergent without preservatives (pH 7.6), each likewise made in the laboratory, without addition of the otherwise usual conventional preservatives. To each paint was added—individually and in combination—particular concentrations of guanidinium hydrochloride, benzisothiazolinone (BIT), and a mixture of chloromethylisothiazolinone (CIT) and methylisothiazolinone (MIT). The laundry detergent and the cleaning composition were admixed with particular concentrations of guanidinium hydrochloride and benzisothiazolinone (BIT). The resultant batches of the paint thus prepared were inoculated with a mixture of different bacteria species (bacteria mixture B); the batches of the laundry detergent and cleaning compositions thus prepared were inoculated with a yeast mixture. • Pseudomonas spp. (Pseudomonas oleovorans group) DSM 33933 • Pseudomonas aeruginosa DSM 33935 • Pseudomonas oleovorans DSM 33936 • Pseudomonas spec. DSM 33937 • Pseudomonas aeruginosa DSM 33938 […] The cell suspension of the bacteria mixture was produced by growing the individual bacteria at 30° C. for 24 h in liquid culture on a shaker. The growth medium used for the bacteria was Müller-Hinton liquid medium. After growing, the individual liquid cultures were centrifuged, and the cells were resuspended in physiological saline solution. […] The cell count of the inoculum was determined in each case by chamber counting. […] The streaked agar plates were then incubated at 30° C. for 48 hours (bacteria) or at 25° C. for 72 hours (yeasts). After incubation, the bacterial or yeast colonies that have grown on the agar plates were visually evaluated and quantified according to the following scheme: [table]

[4] = test system: yeast mixture; assay: Laundry detergent inoculated once with yeast mixture, semiquantitative growth evaluation; design: key: 0: No growth; Minimal growth, 1 to 10 colonies visible over the entire streak; 2: Light growth, maximum 100 colonies; Moderate growth, maximum 300 to 400 colonies; Uniform growth, >400 colonies, single colonies still clearly recognizable; 5: Heavy growth, too many colonies to count, but no growth over the entire streak; 6: Full growth, barely any single colonies still apparent, growth over the entire streak; details: Example 37, laundry detergent, +100 ppm BIT
Text: as §7

[5] = test system: Pseudomonas putida DSM 115323; assay: Minimum inhibitory concentrations and synergy index in Müller-Hinton broth
Method: as §1, §2, §3, §4, §5, §6

SMILES	QB: Concentration of BIT as the sole agent that shows an endpoint ([1]; BIT alone, 48 hours at 30° C.) [ppm]	Synergy index Qa/QA + Qb/QB ([1]; guanidine and BIT, Qa, Qb)	Yeast growth ([2]; Day 1)	Yeast growth ([2]; Day 3)	Bacterial growth ([3]; Day 1)	Bacterial growth ([3]; Day 6)	Bacterial growth ([4]; Day 1)	Bacterial growth ([4]; Day 3)	QB: Concentration of CIT as the sole agent that shows an endpoint ([5]; CIT alone, 48 hours at 30° C.) [ppm]	Synergy index Qa/QA + Qb/QB ([5]; guanidine and CIT, Qa, Qb)
O=c1[nH]sc2ccccc12 [BIT, 1,2-benzisothiazolin-3-one]	300	1.00	6	4 (Uniform growth, >400 colonies, single colonies still clearly recognizable)	6	6	6	4 (Uniform growth, >400 colonies, single colonies still clearly recognizable)		
Cn1sc(Cl)cc1=O [CIT, 5-chloro-2-methyl-4-isothiazolin-3-one]									3.0	1.00
